Data from patent publication US7271239B2, “D-isomers of antimicrobial peptide” (The Research Foundation of State University of New York, priority 2004, dated 2007).
≈ marks a conversion by molar mass, not a printed value. Like-named read-outs stand apart in the source and are kept apart here. Where a SMILES comes first, the peptide text is derived from it. Where no end group is shown, it is not given here. [ ]: non-standard residue; d: D form.

Legend:
P. gingivalis = assay: microbe, parasite or virus in culture; assay type: cell-based, Porphyromonas gingivalis; conditions: for MBC / MIC: Porphyromonas gingivalis
Text: (§1) The bacteria used in this study included Streptococcus mutans ATCC10449, Streptococcus mutans AU 159, Streptococcus mutans GS-5, Streptococcus mutans GS-5 mutant (^gtf BCD), Streptococcus gordonii Challis, Porphyromonas gingivalis W50, Porphyromonas gingivalis 381, A. actinomycetemcomitans NCTC 9710, Pseudomonas aeruginosa ATCC 17648, and Escherichia coli HB101. One quarter strength (25%) of brain heart infusion broth (BHI, DIFCO Laboratories, Detroit, Mich.) was used for the growth of S. mutans, S. gordonii, A. actinomycetemcomitans, Ps. aeruginosa, and E. coli. For growth of P. gingivalis, tryptic soy broth-yeast extract medium (TSBY, DIFCO Laboratories, Detroit, Mich.) supplemented with cysteine hydrochloride (0.05%), menadione (0.02 μg/ml), hemin (5 μg/ml), and potassium nitrate (0.02%) was used. All bacteria were cultured at 37° C.; Ps. aeruginosa and E. coli were grown aerobically, and the other bacteria, anaerobically. To prepare bacterial cell suspension for antibacterial activity assays, each overnight culture was harvested by centrifuge (3783 g, 10 min), washed once with 10 mM sodium phosphate-buffered saline (PBS, pH 7.2), resuspended in PBS and adjusted to a concentration of 1×10^6 cells/mL.
(§2) MICs of the peptides were determined by broth microdilution method as previously described (5). Briefly, two-fold serial dilutions of each peptide were prepared with 25% BHI medium at a volume of 200 μl per well in 96-well flat-bottom microtiter plates (Costar, Cambridge, Mass.). The final concentration of the peptides ranged from 0.78 to 100 μM, and chlorhexidine (CHX), used as a positive control, from 20 to 0.16 μM (10 to 0.078 μg/mL). The microtiter plate was inoculated with bacterial cell suspension with final concentration of 5×10^6 CFU/mL for P. gingivalis and 5×10^5 CFU/mL for the other bacterial species. After incubation at 37° C. for 48 h, the absorbance was measured at 595 nm by using a microplate reader (Model 3550, Bio-Rad, Japan) to assess the cell growth. […] The MIC value represents the median of at least three independent experiments. The minimal bactericidal concentration (MBC) was determined as follows. Aliquot (100 μl) of cell suspension was taken from two wells above MIC, centrifuged, and washed three times with PBS. Then each cell suspension was plated on TSBY agar plate, and bacterial cells were enumerated after incubation at 37° C. for 48 h. The MBC was defined as the lowest concentration of the peptide at which more than 99.9% of cells were killed compared to non-treated control.

[1] = test system: Ps. aeruginosa ATCC 17648; assay: microbe, parasite or virus in culture; assay type: cell-based, Pseudomonas aeruginosa; conditions: for MBC / MIC: Pseudomonas aeruginosa, ATCC17648
Text: as §1, §2

trypsin = assay: Susceptibility of peptides to trypsin (SDS-PAGE); assay type: in vitro ADME
Description: (§3) FIGS. 3A and 3B. Stability of antimicrobial peptides in (3A) Trypsin and (3B) unclarified saliva. Each peptide (3 μg in 5 μl of 0.5 M Tris-HCl buffer pH 7.5) was incubated with: 0.2 μg/ml trypsin containing PIC or no PIC for 0.5 h; or saliva (10 μl) for 1 h. The control of each compound was also incubated with Tris-HCl buffer in parallel. The samples were analyzed by 13% SDS-PAGE. The gel was stained with Coomassie brilliant blue and further analyzed for the peptide degradation by GS-700 Imaging Densitometer. The degradation was estimated by the equation: 1−(density of test band/density of control band)×100%. Ctrol: each peptide alone; T: trypsin plus peptide; T+PIC: trypsin containing PIC plus peptide; S: saliva plus peptide; S+PIC: saliva containing PIC plus peptide.
(§4) Stability of peptides in saliva and susceptibility of septides to trypsin. Three microliters of each peptide (MUC7 12-mer-D, MUC7 12-mer-L, Hsn5 12-mer, or Magainin-II, at 1 μg/μl in 0.2 M Tris-HCl buffer pH 7.5) were incubated with 11 μl of 0.2 μg/ml trypsin or saliva. This gave a final concentration of 0.16 μg/ml for trypsin, and 0.2 μg/μl for peptides (or 127, 127, 128, and 81 μM, for MUC7 12-mer-D, MUC7 12-mer-L, Hsn5 12-mer, or Magainin II, respectively). The reactions, without PIC (water instead or PIC) or with 1×PIC [50% (v/v)] were incubated 0.5 h with trypsin, and 1 hr with saliva (clarified or unclarified) at 37° C. The control of each compound was also incubated with Tris-HCl buffer in parallel. The samples were analyzed by 13% SDS-PAGE. Gels was stained with Coomassie brilliant blue R-250 and further analyzed for the peptide degradation by GS-700 Imaging Densitometer (Bio Red). The degradation was estimated by the equation: 1−(density of test band/density of control band)×100%.

[2] = Stability of peptides in saliva (SDS-PAGE); assay type: in vitro ADME, human
Description: as §3, §4

Candida strains = assay type: cell-based
Text: Killing assays in saliva. […] Saliva without peptides was a blank control.
Activity of peptides in saliva against different candida strains. The in vitro candidacidal activities of MUC7 12-mer-L and D, Hsn5 12-mer, and Magainin-II against four Candida strains in clarified saliva are shown in Table 1. The data are presented as percent loss of cell viability compared to non-treated control. The following observations were made. […] In the presence of PIC, the activity values of MUC7 12-mer-L and of Magainin-II rose close to a 100% for all strains, but not that of Hsn5 peptide, which achieved the similar activity only against the C. albicans (ATCC strain). The activities against the other strains were much lower, in particular against both strains of C. glabrata (30-40%). […] This was true especially in saliva without PIC.

[3] = median of two strains (W 50, 381)

Which MBC (P. gingivalis; median of two strains (W 50, 381), read-out: MBC) does the source give for [H]/N=C(\N/C(=N/[H])NCCCCCCNC(=N)NC(=N)Nc1ccc(Cl)cc1)Nc1ccc(Cl)cc1 [Chlorhexidine, Chlorhexidine digluconate] here?
The MBC was 2.5 µM.

And the MBC (P. gingivalis; median of two strains (W 50, 381), read-out: MBC (μg/ml))?
The MBC was 1.3 µg/mL.

And the MIC (P. gingivalis; median of two strains (W 50, 381), read-out: MIC)?
The MIC was 2.5 µM.

What about the MIC (P. gingivalis; median of two strains (W 50, 381), read-out: MIC (μg/ml)) of the same compound?
The MIC was 1.2 µg/mL.

What about the MBC ([1]; read-out: MBC) of the same compound?
Its MBC is 10 µM.

And the MBC ([1]; read-out: MBC (μg/ml))?
Its MBC is 5.1 µg/mL.

And the MIC ([1]; read-out: MIC)?
The MIC was 10 µM.

And the MIC ([1]; read-out: MIC (μg/ml))?
Its MIC is 5.1 µg/mL.

For CC(C)C[C@@H](NC(=O)[C@@H](CS)NC(=O)[C@@H](CCCCN)NC(=O)[C@@H](Cc1ccc(O)cc1)NC(=O)[C@@H](CO)NC(=O)[C@@H](CCCCN)NC(=O)[C@H](N)CCCNC(=N)N)C(=O)N[C@H](Cc1c[nH]cn1)C(=O)N[C@H](CCCCN)C(=O)N[C@H](CCCNC(=N)N)C(=O)N[C@H](CS)C(=O)N[C@H](CCCNC(=N)N)C(=O)O [MUC7 12-mer-D] (H-[dR][dK][dS][dY][dK][dC][dL][dH][dK][dR][dC][dR]-OH; N-terminus and C-terminus assumed), which degradation by trypsin (trypsin) is on record?
The degradation by trypsin was “resistant to the degradation”.

What about the degradation by saliva [2] of the same compound?
Its degradation by saliva is “resistant to the degradation”.

What about the “MBC (μM)” value (P. gingivalis) of the same compound?
The value was 100.0 µM (≈ 158 µg/mL).

What about the “MBC (μg/ml)” value (P. gingivalis) of the same compound?
The value was 79.0 µg/mL (≈ 50.1 µM).

What about the “MIC (μM)” value (P. gingivalis) of the same compound?
The value was 50.0 µM (≈ 78.9 µg/mL).

And the “MBC (μM)” value ([1]; ATCC 17648)?
The value was >100 µM.

And the “MBC (μg/ml)” value ([1]; ATCC 17648)?
The value was >158 µg/mL.

What about the “MIC (μM)” value ([1]; ATCC 17648) of the same compound?
Its value is 100.0 µM (≈ 158 µg/mL).

And the “activity (killing)” value (Candida strains)?
The value was 47-100%.

And the killing (Candida strains)?
Its killing is ~100%.

Which results are given for CC(C)C[C@H](NC(=O)[C@H](CS)NC(=O)[C@H](CCCCN)NC(=O)[C@H](Cc1ccc(O)cc1)NC(=O)[C@H](CO)NC(=O)[C@H](CCCCN)NC(=O)[C@@H](N)CCCNC(=N)N)C(=O)N[C@@H](Cc1c[nH]cn1)C(=O)N[C@@H](CCCCN)C(=O)N[C@@H](CCCNC(=N)N)C(=O)N[C@@H](CS)C(=O)N[C@@H](CCCNC(=N)N)C(=O)O [MUC7 12-mer-L] (H-RKSYKCLHKRCR-OH; N-terminus and C-terminus assumed)?
degradation by trypsin (trypsin): degraded; degradation by saliva [2]: degraded; MIC (μM) (P. gingivalis): >100 µM; MIC (μg/ml) (P. gingivalis): >158 µg/mL; MBC (μM) ([1]; ATCC 17648): >100 µM; MBC (μg/ml) ([1]; ATCC 17648): >158 µg/mL; MIC (μM) ([1]; ATCC 17648): >100 µM; MIC (μg/ml) ([1]; ATCC 17648): >158 µg/mL; killing (Candida strains): 44-80%

For AKRHHGYKRKFH [Hsn5 12-mer], which degradation by trypsin (trypsin) is on record?
The degradation by trypsin was “degraded”.

What about the degradation by saliva [2] of the same compound?
Its degradation by saliva is “degraded”.

What about the “MIC (μM)” value (P. gingivalis) of the same compound?
Its value is >100 µM.

What about the “MIC (μg/ml)” value (P. gingivalis) of the same compound?
Its value is >158 µg/mL.

And the “MBC (μM)” value ([1]; ATCC 17648)?
Its value is >100 µM.

And the “MBC (μg/ml)” value ([1]; ATCC 17648)?
The value was >158 µg/mL.

What about the “MIC (μM)” value ([1]; ATCC 17648) of the same compound?
The value was >100 µM.

What about the “MIC (μg/ml)” value ([1]; ATCC 17648) of the same compound?
The value was >158 µg/mL.

Which degradation by trypsin (trypsin; 0.5 h, 37° C., SDS-PAGE) does the source give for GIGKFLHSAKKFGKAFVGEIMNS [Magainin-II] here?
Its degradation by trypsin is “degraded”.

What about the degradation by saliva ([2]; unclarified saliva, 1 h, 37° C., SDS-PAGE) of the same compound?
The degradation by saliva was “degraded”.

What about the “MIC (μM)” value (P. gingivalis; [3]) of the same compound?
The value was >100 µM.

And the “MIC (μg/ml)” value (P. gingivalis; [3])?
Its value is >246.9 µg/mL.

And the “MBC (μM)” value [1]?
The value was 100.0 µM.

What about the “MBC (μg/ml)” value [1] of the same compound?
Its value is 246.9 µg/mL.

What about the “MIC (μM)” value [1] of the same compound?
The value was >100 µM.

What about the “MIC (μg/ml)” value [1] of the same compound?
Its value is >246.9 µg/mL.
